# Results from ChEMBL document CHEMBL1155358, “Unsaturated genistein disaccharide glycoside as a novel agent affecting microtubules” (2009).
# Active and inactive are the calls of the source. The rule behind the calls is not given here.
# Experiments:
# DU-145 [1] = assay: Induction of apoptosis in human DU145 cells at interphase assessed as curly appearance of microtubules at 1 nM after 24 hrs by beta tubulin immunofluorescent staining; format: functional, cell-based
# DU-145 [2] = assay: Cell cycle arrest in human DU145 cells assessed as accumulation at < G2M phase at 5 uM after 24 hrs by flow cytometry using propidium iodide staining; format: functional
# DU-145 [3] = assay: Cell cycle arrest in human DU145 cells assessed as accumulation at >G1 phase at 10 uM after 24 hrs by flow cytometry using propidium iodide staining; format: functional
# DU-145 [4] = assay: Cell cycle arrest in human DU145 cells assessed as accumulation at < G2M phase at 10 uM after 24 hrs by flow cytometry using propidium iodide staining; format: functional
# DU-145 [5] = assay: Cell cycle arrest in human DU145 cells assessed as accumulation at >G1 phase at 5 uM after 24 hrs by flow cytometry using propidium iodide staining; format: functional
# DU-145 [6] = assay: Cell cycle arrest in human DU145 cells assessed as accumulation at G2M phase relative to control; format: functional
# DU-145 [7] = assay: Induction of apoptosis in human DU145 cells at interphase assessed as loosened of microtubule network at 5 uM after 24 hrs by beta tubulin immunofluorescent staining; format: functional, cell-based
# DU-145 [8] = assay: Induction of apoptosis in human DU145 cells at interphase assessed as complete disappearance of microtubules at 25 uM after 24 hrs by beta tubulin immunofluorescent staining; format: functional, cell-based
# DU-145 [9] = assay: Cell cycle arrest in human DU145 cells assessed as accumulation at G2M phase at 5 uM after 24 hrs by flow cytometry using propidium iodide staining; format: functional
# DU-145 [10] = assay: Cell cycle arrest in human DU145 cells assessed as accumulation at G1 phase at 5 uM after 24 hrs by flow cytometry using propidium iodide staining; format: functional
# DU-145 [11] = assay: Cell cycle arrest in human DU145 cells assessed as accumulation between G1 phase and G2M phase at 5 uM after 24 hrs by flow cytometry using propidium iodide staining; format: functional
# DU-145 [12] = assay: Cell cycle arrest in human DU145 cells assessed as accumulation at G2M phase at 10 uM after 24 hrs by flow cytometry using propidium iodide staining; format: functional
# DU-145 [13] = assay: Cell cycle arrest in human DU145 cells assessed as accumulation at G1 phase at 10 uM after 24 hrs by flow cytometry using propidium iodide staining; format: functional
# DU-145 [14] = assay: Cell cycle arrest in human DU145 cells assessed as accumulation between G1 phase and G2M phase at 10 uM after 24 hrs by flow cytometry using propidium iodide staining; format: functional
# DU-145 [15] = assay: Cell cycle arrest in human DU145 cells assessed as accumulation between G1 phase and G2M phase at 50 uM after 24 hrs by flow cytometry using propidium iodide staining; format: functional
# DU-145 [16] = assay: Cell cycle arrest in human DU145 cells assessed as accumulation at G2M phase at 100 uM after 24 hrs by flow cytometry using propidium iodide staining; format: functional
# DU-145 [17] = assay: Cell cycle arrest in human DU145 cells assessed as accumulation at G1 phase at 100 uM after 24 hrs by flow cytometry using propidium iodide staining; format: functional
# DU-145 [18] = assay: Cell cycle arrest in human DU145 cells assessed as accumulation between G1 phase and G2M phase at 100 uM after 24 hrs by flow cytometry using propidium iodide staining; format: functional
# DU-145 [19] = assay: Cell cycle arrest in human DU145 cells assessed as accumulation at < G2M phase at 50 uM after 24 hrs by flow cytometry using propidium iodide staining; format: functional
# DU-145 [20] = assay: Cell cycle arrest in human DU145 cells assessed as accumulation at >G1 phase at 50 uM after 24 hrs by flow cytometry using propidium iodide staining; format: functional
# DU-145 [21] = assay: Cell cycle arrest in human DU145 cells assessed as accumulation at < G2M phase at 100 uM after 24 hrs by flow cytometry using propidium iodide staining; format: functional
# DU-145 [22] = assay: Cell cycle arrest in human DU145 cells assessed as accumulation at >G1 phase at 100 uM after 24 hrs by flow cytometry using propidium iodide staining; format: functional
# DU-145 [23] = assay: Induction of apoptosis in human DU145 cells at interphase assessed as alteration in microtubule array at 100 uM after 24 hrs by beta tubulin immunofluorescent staining; format: functional, cell-based
# DU-145 [24] = assay: Cell cycle arrest in human DU145 cells assessed as accumulation at G2M phase at 50 uM after 24 hrs by flow cytometry using propidium iodide staining; format: functional
# DU-145 [25] = assay: Cell cycle arrest in human DU145 cells assessed as accumulation at G1 phase at 50 uM after 24 hrs by flow cytometry using propidium iodide staining; format: functional
# DU-145 [26] = assay: Induction of apoptosis in human DU145 cells at interphase assessed as dencer microtubue network at 2 nM after 24 hrs by beta tubulin immunofluorescent staining; format: functional, cell-based
compound,measurement,setting,value
CC[C@]1(O)C[C@@H]2CN(CCc3c([nH]c4ccccc34)[C@@](C(=O)OC)(c3cc4c(cc3OC)N(C)[C@H]3[C@@](O)(C(=O)OC)[C@H](OC(C)=O)[C@]5(CC)C=CCN6CC[C@]43[C@@H]65)C2)C1,Activity,DU-145 [1],Active
CC(=O)OC[C@H]1O[C@@H](O[C@H]2C=C[C@@H](Oc3cc(O)c4c(=O)c(-c5ccc(O)cc5)coc4c3)O[C@@H]2COC(C)=O)[C@H](OC(C)=O)[C@@H](OC(C)=O)[C@H]1OC(C)=O,Activity,DU-145 [2],1.4%
same,Activity,DU-145 [3],5.7%
same,Activity,DU-145 [4],1.7%
same,Activity,DU-145 [5],7.5%
same,Activity,DU-145 [6],30%
same,Activity,DU-145 [7],Active
same,Activity,DU-145 [8],Active
same,Activity,DU-145 [9],54.5%
same,Activity,DU-145 [10],26.5%
same,Activity,DU-145 [11],10.1%
same,Activity,DU-145 [12],57.8%
same,Activity,DU-145 [13],23.4%
same,Activity,DU-145 [14],11.4%
O=c1c(-c2ccc(O)cc2)coc2cc(O)cc(O)c12 [GENISTEIN],Activity,DU-145 [15],19.2%
same,Activity,DU-145 [16],27.2%
same,Activity,DU-145 [17],44.3%
same,Activity,DU-145 [18],20.8%
same,Activity,DU-145 [19],2.8%
same,Activity,DU-145 [20],5.1%
same,Activity,DU-145 [21],1.6%
same,Activity,DU-145 [22],6.1%
same,Activity,DU-145 [23],inactive
same,Activity,DU-145 [24],17.1%
same,Activity,DU-145 [25],55.9%
CC(=O)O[C@H]1C(=O)[C@@]2(C)[C@H]([C@H](OC(=O)c3ccccc3)[C@]3(O)C[C@H](OC(=O)[C@H](O)[C@@H](NC(=O)c4ccccc4)c4ccccc4)C(C)=C1C3(C)C)[C@]1(OC(C)=O)CO[C@@H]1C[C@@H]2O,Activity,DU-145 [26],Active
